In patent US20240132464A1, “HETEROCYCLIC COMPOUNDS AS E3 LIGASE INHIBITORS” (Accutar Biotechnology Inc., priority 2022, published 2024):

Target: T1, GID4 (Uniprot ID: Q81VV7, residues 124-289) (Homo sapiens, UniProt Q8IVV7)
T1 construct: GID4 (Uniprot ID: Q81VV7, residues 124-289)
T1 sequence (Q8IVV7 124-289): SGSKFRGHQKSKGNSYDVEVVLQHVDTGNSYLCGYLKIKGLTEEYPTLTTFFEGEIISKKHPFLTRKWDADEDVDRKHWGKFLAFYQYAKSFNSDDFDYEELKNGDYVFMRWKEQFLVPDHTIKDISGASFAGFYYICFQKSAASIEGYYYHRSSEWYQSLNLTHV
Assay: GID4 competitive binding assay (AlphaScreen, GID4/degron peptide PGLW)
Conditions: 24 nM GID4, 48 nM biotinylated degron peptide PGLW, 4° C., read-out: IC50 (Inhibition of GID4/Degron binding by test compounds)
Procedure: GID4 Competitive Binding Assay
GID4 binding affinity of compounds disclosed herein was measured by monitoring the interaction of GID4 with its degron peptide (PGLW) in the presence of the test compounds. A truncated version of GID4 (Uniprot ID: Q81VV7, residues 124-289) with a 6*His at its C-terminus was used in this assay. Tetrapeptide, PGLW, was synthesized and tagged with an additional lysine labeled with biotin at its sidechain.
GID4 competitive binding assays were performed in a 384-well plate at 4° C. in a 20 μL reaction volume. Briefly, 24 nM GID4 (final concentration) proteins were pre-incubated with 48 nM biotinylated degron peptide (final concentration) in an assay buffer containing 20 mM HEPES, pH 7.5, 100 mM NaCl, 1 mM DTT, 0.1% Tween-20, and 0.05% BSA in the presence of the test compound in 2% DMSO (final concentration) at various concentrations for 2 h. 5 ug/ml Streptavidin ALphaScreen donor beads and 5 ug/ml nickel chelate (Ni-NTA) ALphaScreen acceptor beads (PerkinElmer, 6760619C) (final concentrations) were then added to the mixture. After an incubation of 1 h at 4° C., the fluorescent signals were obtained on the EnVision® 2105 Multilabel Plate Reader (PerkinElmer).
Raw ALphaScreen data were converted to a percentage of inhibition (relative to DMSO) using the following equations: […]
For a given test compound concentration X:
Signal (X)=Signal (GID4 & peptide & compound)−Signal (GID4 & buffer & compound)
Percentage of inhibition at concentration X=[1−Signal(X)/Signal (DMSO)]*100% b)
The IC50 values were determined by nonlinear regression of plots of [inhibitor] vs. percentage of inhibition with variable slope.
Table 3 summarizes the inhibition of binding between GID4 and degron peptide with compounds of the present disclosure. Compounds were ranked into bins as follows for IC50: A indicates <500 nM; B indicates 500 nM-5000 nM; C indicates >5000 nM.

Compound	IC50 [nM]
Nc1nccc2ccc(-c3ccc4[nH]nc(C(=O)N5CCC(O)CC5)c4c3)cc12 [Compound 336, (5-(1-aminoisoquinolin-7-yl)-1H-indazol-3-yl)(4-hydroxypiperidin-1-yl)methanone]	< 500
CC(C)c1nc(N2CCCC(c3cnc4ccccn34)C2)c2nc[nH]c2n1 (centres unmarked) [Compound 376, 6-(3-(imidazo[1,2-a]pyridin-3-yl)piperidin-1-yl)-2-isopropyl-9H-purine]	< 500
CN(C)CCCNC(=O)c1cc(-c2cc(O)c3ncccc3c2)c[nH]1 [Compound 269, N-(3-(dimethylamino)propyl)-4-(8-hydroxyquinolin-6-yl)-1H-pyrrole-2-carboxamide]	< 500
CC(C)c1cc(N2CCN[C@@H](c3cnc4ccccn34)C2)c2nc[nH]c2n1 (stereo in doubt) [Compound 368, (R/S)-7-(3-(imidazo[1,2-a]pyridin-3-yl)piperazin-1-yl)-5-isopropyl-3H-imidazo[4,5-b]pyridine]	500 to 5000
Nc1nccc2ccc(-c3ccc4[nH]ncc4c3)cc12 [Compound 361, 7-(1H-indazol-5-yl)isoquinolin-1-amine]	< 500
Nc1cc(N2CCCC(c3ncn4ccccc34)C2)nc(N)n1 (centres unmarked) [Compound 225, 6-(3-(imidazo[1,5-a]pyridin-1-yl)piperidin-1-yl)pyrimidine-2,4-diamine]	500 to 5000
c1ccn2c(C3CCCN(c4ccnc5[nH]cnc45)C3)cnc2c1 (centres unmarked) [Compound 62, 7-(3-(imidazo[1,2-a]pyridin-3-yl)piperidin-1-yl)-3H-imidazo[4,5-b]pyridine]	< 500
CN(C)CCCC(=O)N1CC=C(c2cc(O)c3ncccc3c2)CC1 [Compound 309, 4-(dimethylamino)-1-(4-(8-hydroxyquinolin-6-yl)-3,6-dihydropyridin-1(2H)-yl)butan-1-one]	500 to 5000
CN(C)CCCNC(=O)c1ccc(-c2cc3cccnc3c(O)c2Cl)cc1 [Compound 321, 4-(7-chloro-8-hydroxyquinolin-6-yl)-N-(3-(dimethylamino)propyl)benzamide]	< 500
CN(C)CCCNC(=O)c1ccc(-c2cc(O)c3c(c2)CCCN3)cc1 [Compound 284, N-(3-(dimethylamino)propyl)-4-(8-hydroxy-1,2,3,4-tetrahydroquinolin-6-yl)benzamide]	> 5000
CC(C)c1cc(N2CCCC(O)(c3ncn4ccccc34)C2)nc(N)n1 (centres unmarked) [Compound 224, 1-(2-amino-6-isopropylpyrimidin-4-yl)-3-(imidazo[1,5-a]pyridin-1-yl)piperidin-3-ol]	> 5000
CN(C)CCCNC(=O)c1cnc(-c2cc(O)c3ncccc3c2)nc1 [Compound 282, N-(3-(dimethylamino)propyl)-2-(8-hydroxyquinolin-6-yl)pyrimidine-5-carboxamide]	< 500
Nc1cc(N2CCCC(c3cnc4ccccn34)C2)nc(N)n1 (racemic) [Compound 116, (R/S)-6-(3-(imidazo[1,2-a]pyridin-3-yl)piperidin-1-yl)pyrimidine-2,4-diamine]	500 to 5000
CN(C)CCCNC(=O)c1ncc(-c2cc(O)c3ncccc3c2)s1 [Compound 272, N-(3-(dimethylamino)propyl)-5-(8-hydroxyquinolin-6-yl)thiazole-2-carboxamide]	< 500
CN(C)CCCNC(=O)c1cnc(-c2cc(O)c3ncccc3c2)s1 [Compound 274, N-(3-(dimethylamino)propyl)-2-(8-hydroxyquinolin-6-yl)thiazole-5-carboxamide]	< 500
CN1CCC(NC(=O)c2cccc(-c3ccc4ccnc(N)c4c3)c2)CC1 [Compound 345, 3-(1-aminoisoquinolin-7-yl)-N-(1-methylpiperidin-4-yl)benzamide]	500 to 5000
CC(C)c1cc(N(C)CCc2c[nH]c3ccccc23)nc(N)n1 [Compound 179, N4-(2-(1H-indol-3-yl)ethyl)-6-isopropyl-N4-methylpyrimidine-2,4-diamine]	500 to 5000

Continued, values first:

IC50 [nM]	Compound
< 500	CC(C)c1nc(N)cc(N2CCCC(c3cnc4ccccn34)C2)n1 (single isomer, unassigned) [Compound 142, R or S-6-(3-(imidazo[1,2-a]pyridin-3-yl)piperidin-1-yl)-2-isopropylpyrimidin-4-amine]
500 to 5000	Nc1nc(NC2CC2)c(Cl)c(N2CCNC(c3ccccc3Br)C2)n1 (centres unmarked) [Compound 63, 6-(3-(2-bromophenyl)piperazin-1-yl)-5-chloro-N4-cyclopropylpyrimidine-2,4-diamine]
> 5000	Nc1cc(N2CCN(CCO)[C@@H](c3ccccc3Br)C2)nc(N)n1 (stereo in doubt) [Compound 66, (S/R)-2-(2-(2-bromophenyl)-4-(2,6-diaminopyrimidin-4-yl)piperazin-1-yl)ethan-1-ol]
500 to 5000	CC(C)c1cc(N2CCNC(c3csc4ccccc34)C2)nc(N)n1 (centres unmarked) [Compound 162, 4-(3-(benzo[b]thiophen-3-yl)piperazin-1-yl)-6-isopropylpyrimidin-2-amine]
500 to 5000	CNc1cc(N2CCN(C)[C@H](c3ccccc3Br)C2)nc(NC)n1 (stereo in doubt) [Compound 80, (R/S)-6-(3-(2-bromophenyl)-4-methylpiperazin-1-yl)-N2,N4-dimethylpyrimidine-2,4-diamine]
500 to 5000	CC(C)c1cc(N2CCC(c3cnc4ccccn34)C2)nc(N)n1 (centres unmarked) [Compound 253, 4-(3-(imidazo[1,2-a]pyridin-3-yl)pyrrolidin-1-yl)-6-isopropylpyrimidin-2-amine]
500 to 5000	CC(C)c1cc(N2CCN(C)C(c3ccccc3Br)C2)nc(N)n1 (single isomer, unassigned) [Compound 160, (R/S)-4-(3-(2-bromophenyl)-4-methylpiperazin-1-yl)-6-isopropylpyrimidin-2-amine]
> 5000	Nc1nc(N)c(F)c(N2CCOC(c3ccccc3Br)C2)n1 (single isomer, unassigned) [Compound 49, (R/S)-6-(2-(2-bromophenyl)morpholino)-5-fluoropyrimidine-2,4-diamine]
> 5000	Nc1cc(N2CCCC(n3c(=O)[nH]c4ccccc43)C2)nc(N)n1 (centres unmarked) [Compound 257, 1-(1-(2,6-diaminopyrimidin-4-yl)piperidin-3-yl)-1,3-dihydro-2H-benzo[d]imidazol-2-one]
< 500	CC(C)c1cc(N2CCNC(c3cc(N4CCNCC4)ccc3Br)C2)nc(N)n1 (centres unmarked) [Compound 41, 4-(3-(2-bromo-5-(piperazin-1-yl)phenyl)piperazin-1-yl)-6-isopropylpyrimidin-2-amine]
> 5000	CN1CCN(c2cc(N)nc(N)n2)C[C@@H]1c1ccccc1Br (racemic) [Compound 144, (S/R)-6-(3-(2-bromophenyl)-4-methylpiperazin-1-yl)pyrimidine-2,4-diamine]
> 5000	Nc1nc(N2CCNC(c3ccccc3Br)C2)c2[nH]ccc2n1 (single isomer, unassigned) [Compound 42, (R/S)-4-(3-(2-bromophenyl)piperazin-1-yl)-5H-pyrrolo[3,2-d]pyrimidin-2-amine]
> 5000	CC(C)c1cc(N2CCOC(c3cnc4ccccn34)C2)nc(N)n1 (single isomer, unassigned) [Compound 157, (S/R)-4-(2-(imidazo[1,2-a]pyridin-3-yl)morpholino)-6-isopropylpyrimidin-2-amine]
500 to 5000	COc1ccccc1C1CN(c2cc(C(C)C)nc(N)n2)CCN1 (centres unmarked) [Compound 171, 4-isopropyl-6-(3-(2-methoxyphenyl)piperazin-1-yl)pyrimidin-2-amine]
< 500	CN(C)CCNC(=O)c1ccc(Br)c(C2CN(c3cc(N)nc(N)n3)CCN2)c1 (centres unmarked) [Compound 9, 4-bromo-3-(4-(2,6-diaminopyrimidin-4-yl)piperazin-2-yl)-N-(2-(dimethylamino)ethyl)benzamide]
500 to 5000	Cc1cc(N2CCCC(c3cnc4ccccn34)C2)nc(N)n1 (centres unmarked) [Compound 147, 4-(3-(imidazo[1,2-a]pyridin-3-yl)piperidin-1-yl)-6-methylpyrimidin-2-amine]
> 5000	CC(C)c1cc(N2CCN(C)C(c3cnc4ccccn34)C2)nc(N)n1 (single isomer, unassigned) [Compound 105, (S/R)-4-(3-(imidazo[1,2-a]pyridin-3-yl)-4-methylpiperazin-1-yl)-6-isopropylpyrimidin-2-amine]
500 to 5000	CC(C)c1cc(N2CCNC(c3cc(C(=O)N4CCN(C)CC4)ccc3Br)C2)nc(N)n1 (single isomer, unassigned) [Compound 18, (S/R)-(3-(4-(2-amino-6-isopropylpyrimidin-4-yl)piperazin-2-yl)-4-bromophenyl)(4-methylpiperazin-1-yl)methanone]
